Measured values taken from patent publication US11654140B2, “Treatment of ocular inflammatory diseases using laquinimod” (Active Biotech AB, priority 2012, dated 2023).

Tests used:
[1] = test system: subject suffering from viral conjunctivitis; assay: Laquinimod for treating viral conjunctivitis (Example 6); type: in vivo; conditions: laquinimod composition, once daily
Protocol: (§1) In the examples 4-9 below, the administration of the composition is once daily. The administration can be repeated daily for a period of one, two, three or four days, up to 14 days, or longer as necessary.
A laquinimod composition as described herein is administered to a subject suffering from viral conjunctivitis. The administration of the composition is effective to treat the subject suffering from viral conjunctivitis. The administration of the composition is also effective to reduce intraocular inflammation in the subject.

[2] = Animal body weight and adverse clinical effects, ovalbumin study (Example 2); type: in vivo; conditions: laquinimod-treated mice, multiple topical administrations
Text: This weight loss is commonly observed during chronic corticosteroid treatments.

[3] = test system: subject suffering from bacterial conjunctivitis; assay: Laquinimod for treating bacterial conjunctivitis (Example 5); type: in vivo; conditions: laquinimod composition, once daily
Protocol: as §1
A laquinimod composition as described herein is administered to a subject suffering from bacterial conjunctivitis. The administration of the composition is effective to treat the subject suffering from bacterial conjunctivitis. The administration of the composition is also effective to reduce intraocular inflammation in the subject.

[4] = test system: S-antigen-induced uveitis in albino rats; assay: Ocular vs oral laquinimod in S-antigen-induced uveitis in albino rats, clinical score (Example 10); type: in vivo, rat; conditions: once daily, 7 days
[5] = test system: ovalbumin-induced allergic conjunctivitis (late phase reaction) in mice; assay: Ocular active anaphylaxis (late phase) in mice, ovalbumin model, eosinophil infiltration into conjunctiva (Example 2); type: in vivo; conditions: for Eosinophil density, mean / Inhibition of Eosinophil Infiltration vs. Vehicle: 10 μl topical right eye four times daily Day 8-17, five times Day 18; for Eosinophil density, mean: conjunctiva Day 19
Protocol: Laquinimod solutions were prepared as in Example 1.
Forty (40) Balb/c albino mice were randomly allocated to five groups of eight animals each. Only the right eyes of each animal were used in this study.
On Days 1 and 8, animals in groups 2-5 were injected once intraperitoneally with 0.2 ml of a mixture comprising 5 μg/ml ovalbumin and 15 mg/ml alum in phosphate buffered saline (PBS; pH 7.3-7.4). Animals of group 1 received a mock sensitization comprising 0.2 ml intraperitoneal injection of PBS only on Days 1 and 8.
Laquinimod or controls were delivered into the right conjunctival sac as follows: • From Day 8 to Day 17, animals were dosed four times daily with 10 μl of either 1% laquinimod, 5% laquinimod, or vehicle. Reference Group 5 was dosed with the same regimen, but starting on Day 15. (**Note: Due to a technical error, four mice from Group 1 (negative vehicle) were not dosed on Day 8 and one mouse from Group 1 (negative vehicle) was not dosed on Day 11. This was deemed not to be a critical error that would affect the outcome of the study so the study was continued). • On Day 18, animals were dosed five times during a three hour period before the second challenge (3 h, 2 h, 1 h, 40 min., and 10 min.).
Allergic conjunctivitis was achieved by a single administration on Day 15 (30 minutes before the treatment regimen) and Day 18 (2 hours after 40 minute treatment) with 10 μl of 5 mg/ml ovalbumin in PBS, pH 7.3-7.4 to the right eyes of all […] in groups 2 through 5. Group 1 was mock challenged with 10 μl PBS only.
On Day 19 (12 h to 24 h after challenge), […] were euthanized using an intraperitoneal injection of pentobarbital. Right eyelids and eyeballs were immediately fixed in Bouin-Hollande solution for 24 hours and embedded in paraffin wax. Fixed samples were cut vertically into 5 to 7 micrometer thick sections with a microtome in two different regions—the bulbar conjunctiva and the fornix and palpebral conjunctiva. Three sections per region were selected for analysis based on the quality of the sectioning. The selected sections were stained with May-Grunwald/acid Giemsa.
After staining, digital images using 200× magnifications were taken with a Leica light microscope. Total area of subconjunctival tissue was measured automatically using the Leica Application Suite (LAS) software. Eosinophils were counted throughout the whole conjunctiva in each of the three sections per sample. The density per square millimeter of eosinophils stained with acid Giemsa was calculated for each specimen. The average cell density per eye was calculated from the results of the […] sections.

[6] = test system: S-antigen-induced uveitis in albino rats; assay: Ocular vs oral laquinimod in S-antigen-induced uveitis in albino rats, histological analysis (Example 10); type: in vivo, rat; conditions: for Histological ocular evaluation, % Inhibition: Day 19
[7] = test system: S-antigen-induced experimental autoimmune uveitis (EAU) in rats; assay: S-antigen-induced experimental autoimmune uveitis in rats (EAU model), slit lamp clinical score (Example 1); type: in vivo, rat; conditions: for Slit lamp ocular evaluation of both eyes, Incidence % / Slit lamp ocular evaluation of both eyes, mean clinical score: 10 μl once daily both eyes from Day 7; for Slit lamp ocular evaluation of both eyes, mean clinical score: score 0-6
Protocol: A 1% (10 mg/ml) and a 5% (50 mg/ml) solution of laquinimod sodium were prepared in sterile water. Dissolution of laquinimod powder was achieved by shaking, stirring, or low-speed vortex. The solutions were stored for up to 2 weeks at 2-8° C. and up to 24 hours at room temperature. Laquinimod solutions were prepared under light protection and were protected from light for the duration of the experiment. […] One 100 mg/4 ml in olive oil dose was prepared every 2 days and stored at room temperature.
Thirty two female albino Lewis rats were randomly divided into four (4) groups of eight (8) rats. Ocular inflammation was induced at Day 1 by injection of 100 μl of human S-antigen (100 μg) in Freud's complete adjuvant (4 mg/ml) into the footpad of each rat, and an intraperitoneal injection of 1 μg/100 μl pertussis toxin.
Beginning on Day 7 until the end of the study, each animal group was treated with a test solution in both eyes as shown in Table 1:
Both eyes of each rat were examined with a slit-lamp at baseline and then every 2 days from Day 10 to the end of the study. Fifteen minutes prior to each examination, 10 μl of Mydriaticum (0.5% tropicamide) was instilled for papillary dilatation.
The effect of test material and reference material on ocular inflammation was measured with slit lamp evaluation and scored using the clinical scoring as shown in Table 3: […]

[8] = 1%, 1× 10 μl instillation/day for 7 days in both eyes
[9] = 1%, 1×/day for 7 days, 1 mL/kg, per os
[10] = 5%, 1× 10 μl instillation/day for 7 days in both eyes
[11] = 5%, 1×/day for 7 days, 1 mL/kg, per os

SMILES: CCN(C(=O)c1c(O)c2c(Cl)cccc2n(C)c1=O)c1ccccc1 [Laquinimod, laquinimod]
- treat the subject suffering from viral conjunctivitis [1]: effective
- reduce intraocular inflammation in the subject ([1]; viral conjunctivitis): effective
- adverse clinical effect [2]: No adverse clinical effect was observed
- treat the subject suffering from bacterial conjunctivitis [3]: effective
- reduce intraocular inflammation in the subject ([3]; bacterial conjunctivitis): effective
- % Inhibition of clinical score on Day 16 ([4]; 1% PO): 24%
- % Inhibition of clinical score on Day 16 ([4]; 1% eye drops): −75%
- % Inhibition of clinical score on Day 16 ([4]; 5% PO): 39%
- % Inhibition of clinical score on Day 16 ([4]; 5% eye drops): 31%
- Eosinophil density, mean ([5]; 1% Laquinimod): 117.5 cells/mm2
- Inhibition of Eosinophil Infiltration vs. Vehicle ([5]; 1% Laquinimod, not statistically significant): 48%
- Inhibition of Eosinophil Infiltration vs. Vehicle ([5]; 1% Laquinimod, not statistically significant, listed as laquinimod): 48%
- Eosinophil density, mean ([5]; 5% Laquinimod): 72.5 cells/mm2
- Inhibition of Eosinophil Infiltration vs. Vehicle ([5]; 5% Laquinimod, p 0.0023): 68%
- Inhibition of Eosinophil Infiltration vs. Vehicle ([5]; 5% Laquinimod, p 0.0023, listed as laquinimod): 68%
- late ocular anaphylaxis reaction ([5]; multiple topical administrations, statistically significant effect at a dose of 5%): inhibited the late ocular anaphylaxis reaction
- Histological ocular evaluation (scale 0-7) Both Eyes/Day 19, mean [6, 8]: 2.8
- Histological ocular evaluation, % Inhibition [6, 8]: 7.00%
- Histological ocular evaluation (scale 0-7) Both Eyes/Day 19, mean [6, 9]: 2.3
- Histological ocular evaluation, % Inhibition [6, 9]: 23.00%
- Histological ocular evaluation (scale 0-7) Both Eyes/Day 19, mean [6, 10]: 1.8
- Histological ocular evaluation, % Inhibition [6, 10]: 40.00%
- Histological ocular evaluation (scale 0-7) Both Eyes/Day 19, mean [6, 11]: 1.2
- Histological ocular evaluation, % Inhibition [6, 11]: 60.00%
- Slit lamp ocular evaluation of both eyes, Incidence % ([7]; 1% Laquinimod, Baseline): 0.0%
- Slit lamp ocular evaluation of both eyes, mean clinical score ([7]; 1% Laquinimod, Baseline): 0.0
- Slit lamp ocular evaluation of both eyes, Incidence % ([7]; 1% Laquinimod, Day 10): 6.3%
- Slit lamp ocular evaluation of both eyes, mean clinical score ([7]; 1% Laquinimod, Day 10): 0.1
- Slit lamp ocular evaluation of both eyes, Incidence % ([7]; 1% Laquinimod, Day 12): 6.3%
- Slit lamp ocular evaluation of both eyes, mean clinical score ([7]; 1% Laquinimod, Day 12): 0.1
- Slit lamp ocular evaluation of both eyes, Incidence % ([7]; 1% Laquinimod, Day 14): 18.8%
- Slit lamp ocular evaluation of both eyes, mean clinical score ([7]; 1% Laquinimod, Day 14): 0.8
- Slit lamp ocular evaluation of both eyes, Incidence % ([7]; 1% Laquinimod, Day 16): 31.3%
- Slit lamp ocular evaluation of both eyes, mean clinical score ([7]; 1% Laquinimod, Day 16): 1.3
- Slit lamp ocular evaluation of both eyes, mean clinical score ([7]; 1% Laquinimod, Day 16, listed as laquinimod): 1.3±2.1
- Slit lamp ocular evaluation of both eyes, Incidence % ([7]; 5% Laquinimod, Baseline): 0.0%
- Slit lamp ocular evaluation of both eyes, mean clinical score ([7]; 5% Laquinimod, Baseline): 0.0
- Slit lamp ocular evaluation of both eyes, Incidence % ([7]; 5% Laquinimod, Day 10): 0.0%
- Slit lamp ocular evaluation of both eyes, mean clinical score ([7]; 5% Laquinimod, Day 10): 0.0
- Slit lamp ocular evaluation of both eyes, Incidence % ([7]; 5% Laquinimod, Day 12): 0.0%
- Slit lamp ocular evaluation of both eyes, mean clinical score ([7]; 5% Laquinimod, Day 12): 0.0
- Slit lamp ocular evaluation of both eyes, Incidence % ([7]; 5% Laquinimod, Day 14): 6.3%
- Slit lamp ocular evaluation of both eyes, mean clinical score ([7]; 5% Laquinimod, Day 14): 0.3
- Slit lamp ocular evaluation of both eyes, Incidence % ([7]; 5% Laquinimod, Day 16): 12.5%
- Slit lamp ocular evaluation of both eyes, mean clinical score ([7]; 5% Laquinimod, Day 16): 0.6
- Slit lamp ocular evaluation of both eyes, mean clinical score ([7]; 5% Laquinimod, Day 16, listed as laquinimod): 0.6±1.5
- rats tested that demonstrated no intraocular inflammation ([7]; 5% laquinimod solution once per day, Day 16): Six out of eight
